Data published in patent US20230250066A1, “HERBICIDAL CINNOLINE DERIVATIVES” (SYNGENTA CROP PROTECTION AG, priority 2020, published 2023).

Columns and labels:
Format in all cases: in vivo
Setaria faberi (SETFA) [1] = assay: Pre-emergence herbicidal test; settings: 1000 g/ha, evaluated after 13 days
Zea mays (ZEAMX) [2] = assay: Pre-emergence herbicidal test; settings: 1000 g/ha, evaluated after 13 days
[3] = test system: Ipomoea hederacea (IPOHE); assay: Post-emergence herbicidal test; settings: 1000 g/ha unless otherwise stated, evaluated after 13 days
Outline: (§1)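 Damage score (0–5; 5=81-100%, 1=10-20%, 0=0%) read 13 d after spraying. Spray: acetone/water 50:50 + 0.5% Tween 20, 1000 g/ha unless stated.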

[4] = test system: Abutilon theophrasti (ABUTH); assay: Post-emergence herbicidal test; settings: 1000 g/ha unless otherwise stated, evaluated after 13 days
Outline: as §1

[5] = test system: Echinochloa crus-galli (ECHCG); assay: Post-emergence herbicidal test; settings: 1000 g/ha unless otherwise stated, evaluated after 13 days
Outline: as §1

Zea mays (ZEAMX) [6] = assay: Post-emergence herbicidal test; settings: 1000 g/ha unless otherwise stated, evaluated after 13 days
Outline: as §1

Setaria faberi (SETFA) [7] = assay: Post-emergence herbicidal test; settings: 1000 g/ha unless otherwise stated, evaluated after 13 days
Outline: as §1

[8] = test system: Amaranthus retoflexus (AMARE); assay: Post-emergence herbicidal test; settings: 1000 g/ha unless otherwise stated, evaluated after 13 days
Outline: as §1

[9] = test system: Ipomoea hederacea (IPOHE); assay: Pre-emergence herbicidal test; settings: 1000 g/ha, evaluated after 13 days
[10] = test system: Echinochloa crus-galli (ECHCG); assay: Pre-emergence herbicidal test; settings: 1000 g/ha, evaluated after 13 days
[11] = test system: Amaranthus retoflexus (AMARE); assay: Pre-emergence herbicidal test; settings: 1000 g/ha, evaluated after 13 days
[12] = test system: Abutilon theophrasti (ABUTH); assay: Pre-emergence herbicidal test; settings: 1000 g/ha, evaluated after 13 days

## CCOC(=O)c1nn(-c2ccc(OC(F)(F)F)cc2)c2cc(C#N)cc(SC)c2c1=O [Compound P55, ethyl 7-cyano-5-methylsulfanyl-4-oxo-1-[4-(trifluoromethoxy)phenyl]cinnoline-3-carboxylate]
Setaria faberi (SETFA) [1]
  percentage damage caused to the plant, five-point scale, SETFA: 0 (0=0%)
Zea mays (ZEAMX) [2]
  percentage damage caused to the plant, five-point scale, ZEAMX: 0 (0=0%)
[3]
  percentage damage caused to the plant, IPOHE (five-point scale): 0 (0=0%)
[4]
  percentage damage caused to the plant, ABUTH (five-point scale): 0 (0=0%)
[5]
  percentage damage caused to the plant, ECHCG (five-point scale): 0 (0=0%)
Zea mays (ZEAMX) [6]
  percentage damage caused to the plant, ZEAMX (five-point scale): 0 (0=0%)
Setaria faberi (SETFA) [7]
  percentage damage caused to the plant, SETFA (five-point scale): 0 (0=0%)
[8]
  percentage damage caused to the plant, AMARE (five-point scale): 0 (0=0%)
[9]
  percentage damage caused to the plant, five-point scale, IPOHE: 0 (0=0%)
[10]
  percentage damage caused to the plant, five-point scale, ECHCG: 0 (0=0%)
[11]
  percentage damage caused to the plant, five-point scale, AMARE: 0 (0=0%)
[12]
  percentage damage caused to the plant, five-point scale, ABUTH: 1 (1=10-20%)

## COC(=O)c1nn(-c2ccc(OC(F)(F)F)cc2)c2cc(OC)cc(SC)c2c1=O [Compound P56, methyl 7-methoxy-5-methylsulfanyl-4-oxo-1-[4-(trifluoromethoxy)phenyl]cinnoline-3-carboxylate]
Setaria faberi (SETFA) [1]
  percentage damage caused to the plant, five-point scale, SETFA: 0 (0=0%)
Zea mays (ZEAMX) [2]
  percentage damage caused to the plant, five-point scale, ZEAMX: 0 (0=0%)
[3]
  percentage damage caused to the plant, IPOHE (five-point scale): 0 (0=0%)
[4]
  percentage damage caused to the plant, ABUTH (five-point scale): 0 (0=0%)
[5]
  percentage damage caused to the plant, ECHCG (five-point scale): 0 (0=0%)
Zea mays (ZEAMX) [6]
  percentage damage caused to the plant, ZEAMX (five-point scale): 0 (0=0%)
Setaria faberi (SETFA) [7]
  percentage damage caused to the plant, SETFA (five-point scale): 0 (0=0%)
[8]
  percentage damage caused to the plant, AMARE (five-point scale): 1 (1=10-20%)
[9]
  percentage damage caused to the plant, five-point scale, IPOHE: 0 (0=0%)
[10]
  percentage damage caused to the plant, five-point scale, ECHCG: 0 (0=0%)
[11]
  percentage damage caused to the plant, five-point scale, AMARE: 0 (0=0%)
[12]
  percentage damage caused to the plant, five-point scale, ABUTH: 0 (0=0%)

## CCOC(=O)c1nn(-c2ccc(OC(F)(F)F)cc2)c2cc(OC)cc(SC)c2c1=O [Compound P57, ethyl 7-methoxy-5-methylsulfanyl-4-oxo-1-[4-(trifluoromethoxy)phenyl]cinnoline-3-carboxylate]
Setaria faberi (SETFA) [1]
  percentage damage caused to the plant, five-point scale, SETFA: 0 (0=0%)
Zea mays (ZEAMX) [2]
  percentage damage caused to the plant, five-point scale, ZEAMX: 0 (0=0%)
[3]
  percentage damage caused to the plant, IPOHE (five-point scale): 0 (0=0%)
[4]
  percentage damage caused to the plant, ABUTH (five-point scale): 0 (0=0%)
[5]
  percentage damage caused to the plant, ECHCG (five-point scale): 1 (1=10-20%)
Zea mays (ZEAMX) [6]
  percentage damage caused to the plant, ZEAMX (five-point scale): 0 (0=0%)
Setaria faberi (SETFA) [7]
  percentage damage caused to the plant, SETFA (five-point scale): 1 (1=10-20%)
[8]
  percentage damage caused to the plant, AMARE (five-point scale): 0 (0=0%)
[9]
  percentage damage caused to the plant, five-point scale, IPOHE: 0 (0=0%)
[10]
  percentage damage caused to the plant, five-point scale, ECHCG: 0 (0=0%)
[11]
  percentage damage caused to the plant, five-point scale, AMARE: 0 (0=0%)
[12]
  percentage damage caused to the plant, five-point scale, ABUTH: 0 (0=0%)

## CCCCCCOC(=O)c1nn(-c2ccc(OC(F)(F)F)cc2)c2cccc(S(C)(=O)=O)c2c1=O [Compound P59, hexyl 5-methylsulfonyl-4-oxo-1-[4-(trifluoromethoxy)phenyl]cinoline-3-carboxylate]
Setaria faberi (SETFA) [1]
  percentage damage caused to the plant, five-point scale, SETFA: 4 (4=61-80%)
Zea mays (ZEAMX) [2]
  percentage damage caused to the plant, five-point scale, ZEAMX: 3 (3=41-60%)
[3]
  percentage damage caused to the plant, IPOHE (five-point scale): 3 (3=41-60%)
[4]
  percentage damage caused to the plant, ABUTH (five-point scale): 1 (1=10-20%)
[5]
  percentage damage caused to the plant, ECHCG (five-point scale): 4 (4=61-80%)
Zea mays (ZEAMX) [6]
  percentage damage caused to the plant, ZEAMX (five-point scale): 2 (2=21-40%)
Setaria faberi (SETFA) [7]
  percentage damage caused to the plant, SETFA (five-point scale): 4 (4=61-80%)
[8]
  percentage damage caused to the plant, AMARE (five-point scale): 1 (1=10-20%)
[9]
  percentage damage caused to the plant, five-point scale, IPOHE: 2 (2=21-40%)
[10]
  percentage damage caused to the plant, five-point scale, ECHCG: 3 (3=41-60%)
[11]
  percentage damage caused to the plant, five-point scale, AMARE: 2 (2=21-40%)
[12]
  percentage damage caused to the plant, five-point scale, ABUTH: 3 (3=41-60%)

## CCCCCCCCCCCOC(=O)c1nn(-c2ccc(OC(F)(F)F)cc2)c2cccc(S(C)(=O)=O)c2c1=O [Compound P60, undecyl 5-methylsulfonyl-4-oxo-1-[4-(trifluoromethoxy)phenyl]cinnoline-3-carboxylate]
Setaria faberi (SETFA) [1]
  percentage damage caused to the plant, five-point scale, SETFA: 4 (4=61-80%)
Zea mays (ZEAMX) [2]
  percentage damage caused to the plant, five-point scale, ZEAMX: 1 (1=10-20%)
[3]
  percentage damage caused to the plant, IPOHE (five-point scale): 1 (1=10-20%)
[4]
  percentage damage caused to the plant, ABUTH (five-point scale): 1 (1=10-20%)
[5]
  percentage damage caused to the plant, ECHCG (five-point scale): 1 (1=10-20%)
Zea mays (ZEAMX) [6]
  percentage damage caused to the plant, ZEAMX (five-point scale): 1 (1=10-20%)
Setaria faberi (SETFA) [7]
  percentage damage caused to the plant, SETFA (five-point scale): 1 (1=10-20%)
[8]
  percentage damage caused to the plant, AMARE (five-point scale): 1 (1=10-20%)
[9]
  percentage damage caused to the plant, five-point scale, IPOHE: 0 (0=0%)
[10]
  percentage damage caused to the plant, five-point scale, ECHCG: 1 (1=10-20%)
[11]
  percentage damage caused to the plant, five-point scale, AMARE: 1 (1=10-20%)
[12]
  percentage damage caused to the plant, five-point scale, ABUTH: 1 (1=10-20%)

## CS(=O)(=O)c1cccc2c1c(=O)c(C(=O)OCCCl)nn2-c1ccc(OC(F)(F)F)cc1 [Compound P61, 2-chloroethyl 5-methylsulfonyl-4-oxo-1-[4-(trifluoromethoxy)phenyl]cinnoline-3-carboxylate]
Setaria faberi (SETFA) [1]
  percentage damage caused to the plant, five-point scale, SETFA: 5 (5=81-100%)
Zea mays (ZEAMX) [2]
  percentage damage caused to the plant, five-point scale, ZEAMX: 1 (1=10-20%)
[3]
  percentage damage caused to the plant, IPOHE (five-point scale): 0 (0=0%)
[4]
  percentage damage caused to the plant, ABUTH (five-point scale): 2 (2=21-40%)
[5]
  percentage damage caused to the plant, ECHCG (five-point scale): 3 (3=41-60%)
Zea mays (ZEAMX) [6]
  percentage damage caused to the plant, ZEAMX (five-point scale): 0 (0=0%)
Setaria faberi (SETFA) [7]
  percentage damage caused to the plant, SETFA (five-point scale): 4 (4=61-80%)
[8]
  percentage damage caused to the plant, AMARE (five-point scale): 0 (0=0%)
[9]
  percentage damage caused to the plant, five-point scale, IPOHE: 0 (0=0%)
[10]
  percentage damage caused to the plant, five-point scale, ECHCG: 4 (4=61-80%)
[11]
  percentage damage caused to the plant, five-point scale, AMARE: 0 (0=0%)
[12]
  percentage damage caused to the plant, five-point scale, ABUTH: 0 (0=0%)

## C#CCCCOC(=O)c1nn(-c2ccc(OC(F)(F)F)cc2)c2cccc(S(C)(=O)=O)c2c1=O [Compound P62, pent-4-ynyl 5-methylsulfonyl-4-oxo-1-[4-(trifluoromethoxy)phenyl]cinnoline-3-carboxylate]
Setaria faberi (SETFA) [1]
  percentage damage caused to the plant, five-point scale, SETFA: 5 (5=81-100%)
Zea mays (ZEAMX) [2]
  percentage damage caused to the plant, five-point scale, ZEAMX: 0 (0=0%)
[3]
  percentage damage caused to the plant, IPOHE (five-point scale): 0 (0=0%)
[4]
  percentage damage caused to the plant, ABUTH (five-point scale): 0 (0=0%)
[5]
  percentage damage caused to the plant, ECHCG (five-point scale): 3 (3=41-60%)
Zea mays (ZEAMX) [6]
  percentage damage caused to the plant, ZEAMX (five-point scale): 1 (1=10-20%)
Setaria faberi (SETFA) [7]
  percentage damage caused to the plant, SETFA (five-point scale): 4 (4=61-80%)
[8]
  percentage damage caused to the plant, AMARE (five-point scale): 0 (0=0%)
[9]
  percentage damage caused to the plant, five-point scale, IPOHE: 0 (0=0%)
[10]
  percentage damage caused to the plant, five-point scale, ECHCG: 4 (4=61-80%)
[11]
  percentage damage caused to the plant, five-point scale, AMARE: 0 (0=0%)
[12]
  percentage damage caused to the plant, five-point scale, ABUTH: 0 (0=0%)

## CS(=O)(=O)c1cccc2c1c(=O)c(C(=O)OCC1CC1)nn2-c1ccc(OC(F)(F)F)cc1 [Compound P63, cyclopropylmethyl 5-methylsulfonyl-4-oxo-1-[4-(trifluoromethoxy)phenyl]cinnoline-3-carboxylate]
Setaria faberi (SETFA) [1]
  percentage damage caused to the plant, five-point scale, SETFA: 5 (5=81-100%)
Zea mays (ZEAMX) [2]
  percentage damage caused to the plant, five-point scale, ZEAMX: 0 (0=0%)
[3]
  percentage damage caused to the plant, IPOHE (five-point scale): 0 (0=0%)
[4]
  percentage damage caused to the plant, ABUTH (five-point scale): 0 (0=0%)
[5]
  percentage damage caused to the plant, ECHCG (five-point scale): 3 (3=41-60%)
Zea mays (ZEAMX) [6]
  percentage damage caused to the plant, ZEAMX (five-point scale): 0 (0=0%)
Setaria faberi (SETFA) [7]
  percentage damage caused to the plant, SETFA (five-point scale): 4 (4=61-80%)
[8]
  percentage damage caused to the plant, AMARE (five-point scale): 0 (0=0%)
[9]
  percentage damage caused to the plant, five-point scale, IPOHE: 0 (0=0%)
[10]
  percentage damage caused to the plant, five-point scale, ECHCG: 3 (3=41-60%)
[11]
  percentage damage caused to the plant, five-point scale, AMARE: 0 (0=0%)
[12]
  percentage damage caused to the plant, five-point scale, ABUTH: 0 (0=0%)

## C=CC(C)OC(=O)c1nn(-c2ccc(OC(F)(F)F)cc2)c2cccc(S(C)(=O)=O)c2c1=O (stereo not drawn) [Compound P64, 1-methylallyl 5-methylsulfonyl-4-oxo-1-[4-(trifluoromethoxy)phenyl]cinnoline-3-carboxylate]
Setaria faberi (SETFA) [1]
  percentage damage caused to the plant, five-point scale, SETFA: 5 (5=81-100%)
Zea mays (ZEAMX) [2]
  percentage damage caused to the plant, five-point scale, ZEAMX: 0 (0=0%)
[3]
  percentage damage caused to the plant, IPOHE (five-point scale): 0 (0=0%)
[4]
  percentage damage caused to the plant, ABUTH (five-point scale): 1 (1=10-20%)
[5]
  percentage damage caused to the plant, ECHCG (five-point scale): 3 (3=41-60%)
Zea mays (ZEAMX) [6]
  percentage damage caused to the plant, ZEAMX (five-point scale): 1 (1=10-20%)
Setaria faberi (SETFA) [7]
  percentage damage caused to the plant, SETFA (five-point scale): 4 (4=61-80%)
[8]
  percentage damage caused to the plant, AMARE (five-point scale): 0 (0=0%)
[9]
  percentage damage caused to the plant, five-point scale, IPOHE: 0 (0=0%)
[10]
  percentage damage caused to the plant, five-point scale, ECHCG: 4 (4=61-80%)
[11]
  percentage damage caused to the plant, five-point scale, AMARE: 0 (0=0%)
[12]
  percentage damage caused to the plant, five-point scale, ABUTH: 0 (0=0%)
